Test results reported in US20250090441A1, “ANTI-CARIES PEPTIDES WITH ANTIMICROBIAL AND REMINERALIZING PROPERTIES AND METHODS THEREOF” (THE UNIVERSITY OF HONG KONG, priority 2023, published 2025).
Bridges are numbered along the chain shown (N, C = ends). Where no end group is shown, it is not given here.

Tests used:
[1] = tested on: Candida albicans, ATCC 90028; assay type: cell-based; details: μM
Experimental: (§1) The antimicrobial properties of synthesized peptides against bacteria and fungi were evaluated using minimum inhibitory concentration (MIC) and minimum bactericidal/fungicidal concentration (MBC/MFC) tests (Wiegand et al. 2008). The tested species include Streptococcus mutans, UA159; Lacticaseibacillus casei, American Type Culture Collection (ATCC) 334; and Candida albicans, ATCC 90028. A 10 μL aliquot of bacterial culture (10^6 CFU/mL) in brain heart infusion (BHI) broth was added to 100 μL serial two-fold dilutions of experimental solutions. The optical density values at 660 nm were measured after 18 h of incubation. To determine the MBC, 10 μL of bacterial culture was taken from the well of MIC, and wells before and after the well of MIC, and transferred to blood agar. The test protocol for fungi was similar: the culture medium was a Roswell Park Memorial Institute (RPMI) 1640 Medium, the absorbance was measured at 520 nm, and Sabouraud dextrose agar was used for the MFC test. Chlorhexidine and medium were used as the positive and negative controls.

[2] = tested on: Streptococcus mutans, UA159; experiment: MIC and MBC/MFC test; assay type: cell-based; details: Streptococcus mutans (UA159); μM
Experimental: as §1

[3] = tested on: Lacticaseibacillus casei, ATCC 334; experiment: MIC and MBC/MFC test; assay type: cell-based; details: μM
Experimental: as §1

[4] = Remineralizing effects on enamel, chemical pH cycling model (SEM-EDS, Micro-CT, XRD); parameters: species or system human; details: 160 μM twice daily, pH cycling 8 days, n = 8; for Calcium to phosphate molar ratio: EDS; for Lesion depth / Mineral loss: Micro-CT
Experimental: Ten enamel slices were cut from extracted sound human molars. Each slice was separated into four blocks. A total of 40 enamel blocks were prepared. Then the surface of the enamel block was half-covered by an acid-resistant varnish. The exposed half was the experimental surface, and the varnished half was the internal control. Before use, all the enamel blocks were sterilized via autoclave (Niu et al. 2021d; Yu et al. 2018).
The pH-cycling procedure (16 h-demineralization at pH 4.5 and 8 h-remineralization at pH 7.0) was performed to enamel blocks for 8 days. The formula for demineralizing/remineralizing solution was employed from a previous study (Yu et al. 2018). The enamel blocks from the same enamel slice were treated twice daily with 160 μM GAPI (GAPI Group), 160 μM gallic acid (GA Group), 160 μM polyphemusin-I (PI Group), and sterile deionized water (Water Group). All enamel blocks after pH cycling were involved in sequent assessments.
The structure of the enamel surface was examined using SEM (n=8 per group) (Niu et al. 2021d). The elemental analysis of enamel surface was conducted using affiliated energy-dispersive X-ray spectroscopy (EDS). The calcium to phosphorus molar ratio was calculated (Niu et al. 2022). The mineral loss and lesion depth on the enamel blocks were assessed using microcomputed tomography (Micro-CT) (1076, SkyScan, Antwerp, Belgium) (n=8 per group) (Niu et al. 2022). The diffraction patterns of the enamel blocks were evaluated using X-ray diffraction analysis (XRD) (Rigaku SmartLab 9 kW, […]) (n=2 per group) (Yu et al. 2018).

Row | Compound | MBC/MFC [1] | MIC [1] | MBC/MFC [2] | MIC [2] | MBC/MFC [3] | MIC [3] | Calcium to phosphate molar ratio [4] | Lesion depth [4] | Mineral loss [4]
1 | Polyphemusin-I (RRWCFRVCYRGFCYRKCR; disulfide 8-13, 4-17) [PI, reference compound] | 0.6 | 0.3 | 80 | 20 | 160 | 20 | 1.70 ± 0.06 | 96 ± 9 μm | 1.32 ± 0.26 gHApcm^−3
2 | O=C(O)c1cc(O)c(O)c(O)c1 [GA, Gallic Acid] | – | – | – | – | – | – | 1.82 ± 0.08 | 62 ± 12 μm | 0.88 ± 0.24 gHApcm^−3
